Experiment [1] deals with T1, human GIP receptor (hGIPR) (Homo sapiens, UniProt P48546).
T1 construct: expressed in transfected cells; crude membranes
T1 sequence (P48546 22-466): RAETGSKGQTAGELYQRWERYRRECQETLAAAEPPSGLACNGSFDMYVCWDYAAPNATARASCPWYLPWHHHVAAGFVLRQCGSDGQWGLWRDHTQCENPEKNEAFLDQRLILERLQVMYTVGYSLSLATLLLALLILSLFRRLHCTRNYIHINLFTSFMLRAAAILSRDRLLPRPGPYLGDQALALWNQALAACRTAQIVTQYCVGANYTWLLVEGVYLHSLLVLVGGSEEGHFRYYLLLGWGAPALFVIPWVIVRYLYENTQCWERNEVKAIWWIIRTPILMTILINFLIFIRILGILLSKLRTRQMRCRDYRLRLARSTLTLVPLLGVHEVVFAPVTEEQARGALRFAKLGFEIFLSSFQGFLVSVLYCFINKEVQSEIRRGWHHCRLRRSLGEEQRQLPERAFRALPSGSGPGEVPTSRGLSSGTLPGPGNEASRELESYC
The experiment can be described thus: [125I]-GIP binding, SPA with membranes of CHO cells expressing hGIPR.

Another experiment has as its target T2, hGIPR (Homo sapiens, UniProt P48546).
T2 construct: expressed in transfected cells
T2 sequence (P48546 22-466): T1 sequence (P48546 22-466)
The experiment can be described thus: Functional cAMP formation (HTRF) in HEK-293 clonal cells expressing hGIPR, 0.1% bovine casein, without or with 1.0% human serum albumin. The experiment is classed as cell-based. The conditions noted are these: for EC50: geometric mean. Put shortly: (§1)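 Cells were stimulated with peptide for 30 min at 37° C, then lysed in buffer carrying cAMP-d2 and anti-cAMP Eu3+-cryptate for a competitive HTRF read after at least 60 min at room temperature. The 665/620 nm ratio was converted to nM cAMP against a standard curve.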

In the next experiment the target is T3, hGCGR (Homo sapiens, UniProt P47871).
T3 construct: expressed in transfected cells
The experiment can be described thus: Functional cAMP formation (HTRF) in HEK-293 clonal cells expressing hGCGR, 0.1% bovine casein, without or with 1.0% human serum albumin. The experiment is classed as cell-based. Put shortly: as §1

Another experiment concerns the target hGLP-1R (Homo sapiens, UniProt P43220). The experiment in a line: Functional cAMP formation (HTRF) in HEK-293 clonal cells expressing hGLP-1R, 0.1% bovine casein, without or with 1.0% human serum albumin. The format is cell-based. Also noted: expressed in transfected cells. The conditions noted are these: 37° C. Put shortly:
as §1

Setting [2] is: human GIPR, geometric mean (SEM, n), read-out: Binding Affinity Ki, nM (SEM, n) hGIPR.
Setting [3] is: 0.1% bovine casein and 1.0% human serum albumin, 37° C., read-out: hGIPR EC50, nM (SEM, n).
The mark [4] stands for this setting: HEK293, 0.1% bovine casein and 1.0% human serum albumin, 37° C., percent of maximal response to GIP(1-42)NH2, read-out: hGIPR Emax, % ± SEM.
[5] abbreviates: cAMP, incubated at 37° C., 0.1% bovine casein (no human serum albumin), read-out: hGIPR EC50, nM (SEM, n).
Setting [6] is: 0.1% bovine casein and 1.0% human serum albumin, 37° C., geometric mean, read-out: hGCGR EC50, nM (SEM, n).
Setting [7] is: cAMP, incubated at 37° C., 0.1% bovine casein (no human serum albumin), geometric mean, read-out: hGCGR EC50, nM (SEM, n).
Setting [8] is: 0.1% bovine casein and 1.0% human serum albumin, geometric mean, read-out: hGLP-1R EC50, nM (SEM, n).

Like-named read-outs stand apart in the source and are kept apart here.

T3 sequence (P47871 26-477): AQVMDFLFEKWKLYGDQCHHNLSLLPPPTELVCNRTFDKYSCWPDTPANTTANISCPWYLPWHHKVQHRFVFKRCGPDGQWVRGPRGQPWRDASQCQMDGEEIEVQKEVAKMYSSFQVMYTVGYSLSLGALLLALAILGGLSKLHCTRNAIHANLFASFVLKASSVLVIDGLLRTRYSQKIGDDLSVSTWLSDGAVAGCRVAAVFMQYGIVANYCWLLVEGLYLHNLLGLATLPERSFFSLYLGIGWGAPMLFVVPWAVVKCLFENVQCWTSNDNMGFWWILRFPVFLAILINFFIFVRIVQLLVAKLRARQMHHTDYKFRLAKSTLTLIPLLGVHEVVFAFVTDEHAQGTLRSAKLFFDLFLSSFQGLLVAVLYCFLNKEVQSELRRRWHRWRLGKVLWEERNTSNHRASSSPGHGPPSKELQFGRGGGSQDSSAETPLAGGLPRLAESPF
Sequence of hGLP-1R (P43220 24-463): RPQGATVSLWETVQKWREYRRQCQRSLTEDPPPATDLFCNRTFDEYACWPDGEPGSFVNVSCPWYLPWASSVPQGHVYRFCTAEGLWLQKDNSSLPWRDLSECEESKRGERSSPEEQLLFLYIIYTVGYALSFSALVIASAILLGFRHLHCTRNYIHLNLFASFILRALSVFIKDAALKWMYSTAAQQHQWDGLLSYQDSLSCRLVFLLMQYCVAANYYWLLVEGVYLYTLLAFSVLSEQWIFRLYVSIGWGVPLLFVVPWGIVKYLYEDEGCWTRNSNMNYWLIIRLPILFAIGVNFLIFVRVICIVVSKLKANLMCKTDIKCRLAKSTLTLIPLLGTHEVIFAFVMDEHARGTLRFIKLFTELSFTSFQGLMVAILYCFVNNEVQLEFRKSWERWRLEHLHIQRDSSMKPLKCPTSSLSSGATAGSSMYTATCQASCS

For `CCCCCCCCCCCCCCCC(=O)N[C@@H](CCC(=O)NCCOCCOCC(=O)NCCOCCOCC(=O)NCCCC[C@H](NC(=O)CNC(=O)CNC(=O)[C@H](CCCCNC(=O)COCCOCCNC(=O)COCCOCCNC(=O)CC[C@H](NC(=O)CCCCCCCCCCCCCCC)C(=O)O)NC(=O)[C@@H](NC(=O)[C@H](CC(C)C)NC(=O)[C@](C)(Cc1ccc(O)cc1)NC(=O)[C@@H](CCC(=O)O)NC(=O)[C@@H](NC(=O)[C@H](Cc1ccccc1)NC(=O)[C@H](CCC(=O)O)NC(=O)C(C)(C)NC(=O)[C@H](CCC(N)=O)NC(=O)[C@H](C)NC(=O)[C@@H](NC(=O)[C@H](CCCN)NC(=O)[C@H](CC(=O)O)NC(=O)[C@H](CC(C)C)NC(=O)[C@](C)(CC(C)C)NC(=O)[C@@H](NC(=O)[C@H](CO)NC(=O)[C@H](Cc1ccncc1)NC(=O)[C@H](CC(=O)O)NC(=O)[C@H](CO)NC(=O)[C@@H](NC(=O)[C@](C)(Cc1ccccc1F)NC(=O)[C@@H](NC(=O)CNC(=O)[C@H](CCC(=O)O)NC(=O)C(C)(C)NC(=O)[C@@H](N)Cc1ccc(O)cc1)[C@@H](C)O)[C@@H](C)O)[C@@H](C)CC)[C@@H](C)CC)[C@@H](C)CC)[C@@H](C)CC)C(=O)N[C@@H](CO)C(=O)N[C@@H](CO)C(=O)NCC(=O)N[C@@H](C)C(=O)N1CCC[C@H]1C(=O)N1CCC[C@H]1C(=O)N1CCC[C@H]1C(=O)N[C@@H](CO)C(N)=O)C(=O)O` [Example 26], the Ki in experiment [1] (setting [2]) turned out to be 0.0863 nM. Further, the 50% effective concentration (EC50) at hGIPR (setting [3]) is 1.2 nM; at hGIPR (setting [5]) it was 0.0218 nM; on hGCGR (setting [6]), more than 9950 nM; on hGCGR (setting [7]) it was more than 9950 nM; at hGLP-1R (setting [8]), 3.93 nM. For the same compound, the Emax on hGIPR (setting [4]) amounted to 95.4 ± 2.54%.
`CC[C@H](C)[C@H](NC(=O)[C@H](CC(C)C)NC(=O)[C@](C)(Cc1ccc(O)cc1)NC(=O)[C@H](CCCCNC(=O)COCCOCCNC(=O)COCCOCCNC(=O)CC[C@H](NC(=O)CCCCCCCCCOc1ccc(C(=O)O)cc1)C(=O)O)NC(=O)[C@@H](NC(=O)[C@H](Cc1ccccc1)NC(=O)[C@H](CCCN)NC(=O)C(C)(C)NC(=O)[C@H](CCC(N)=O)NC(=O)[C@H](C)NC(=O)[C@H](CCC(N)=O)NC(=O)[C@H](CCCN)NC(=O)[C@H](CC(=O)O)NC(=O)[C@H](CC(C)C)NC(=O)[C@](C)(CC(C)C)NC(=O)[C@@H](NC(=O)C(C)(C)NC(=O)[C@H](Cc1ccncc1)NC(=O)[C@H](CC(=O)O)NC(=O)[C@H](CO)NC(=O)[C@@H](NC(=O)[C@](C)(Cc1ccccc1F)NC(=O)[C@@H](NC(=O)CNC(=O)[C@H](CCC(=O)O)NC(=O)C(C)(C)NC(=O)[C@@H](N)Cc1ccc(O)cc1)[C@@H](C)O)[C@@H](C)O)[C@@H](C)CC)[C@@H](C)CC)C(=O)N[C@@H](CCCCNC(=O)COCCOCCNC(=O)COCCOCCNC(=O)CC[C@H](NC(=O)CCCCCCCCCOc1ccc(C(=O)O)cc1)C(=O)O)C(=O)NCC(=O)NCC(=O)N1CCC[C@H]1C(=O)N[C@@H](CO)C(=O)N[C@@H](CO)C(=O)NCC(=O)N[C@@H](C)C(=O)N1CCC[C@H]1C(=O)N1CCC[C@H]1C(=O)N1CCC[C@H]1C(=O)N[C@@H](CO)C(N)=O` [Example 440] displayed an inhibitory constant (Ki) in experiment [1] of 0.0312 nM. The maximal effect (Emax) at hGIPR (HEK293, read-out: hGIPR Emax, % ± SEM, cAMP, 37° C., 0.1% bovine casein and 1.0% human serum albumin, percent of maximal response to GIP(1-42)NH2) amounted to 90.3%. Moreover, the 50% effective concentration (EC50) at hGIPR (hGIPR EC50, nM (SEM, n), cAMP, 37° C., 0.1% bovine casein (no human serum albumin)) is 0.0104 nM; at hGCGR (hGCGR EC50, nM (SEM, n), cAMP, 37° C., 0.1% bovine casein (no human serum albumin), geometric mean), more than 10100 nM; at hGCGR (hGCGR EC50, nM (SEM, n), cAMP, 37° C., 0.1% bovine casein and 1.0% human serum albumin, geometric mean (SEM, n)) it was more than 10100 nM; at hGLP-1R (hGLP-1R EC50, nM (SEM, n), cAMP, 0.1% bovine casein (no human serum albumin), geometric mean), 0.18 nM; on hGLP-1R (hGLP-1R EC50, nM (SEM, n), cAMP, 0.1% bovine casein and 1.0% human serum albumin, geometric mean (SEM, n)), 2.74 nM.
`CC[C@H](C)[C@H](NC(=O)[C@H](CC(C)C)NC(=O)[C@](C)(Cc1ccc(O)cc1)NC(=O)[C@@H](CCC(=O)O)NC(=O)[C@@H](NC(=O)[C@H](Cc1ccccc1)NC(=O)[C@H](CCC(=O)O)NC(=O)C(C)(C)NC(=O)[C@H](CCC(N)=O)NC(=O)[C@H](C)NC(=O)[C@H](CCCCNC(=O)[C@@H](N)CCCCNC(=O)COCCOCCNC(=O)CC[C@H](NC(=O)CCCCCCCCCCCCC(=O)O)C(=O)O)NC(=O)[C@H](CCCN)NC(=O)[C@H](CC(=O)O)NC(=O)[C@H](CC(C)C)NC(=O)[C@](C)(CC(C)C)NC(=O)[C@@H](NC(=O)[C@H](CO)NC(=O)[C@H](Cc1ccncc1)NC(=O)[C@H](CC(=O)O)NC(=O)[C@H](CO)NC(=O)[C@@H](NC(=O)[C@](C)(Cc1ccccc1F)NC(=O)[C@@H](NC(=O)CNC(=O)[C@H](CCC(=O)O)NC(=O)C(C)(C)NC(=O)[C@@H](N)Cc1ccc(O)cc1)[C@@H](C)O)[C@@H](C)O)[C@@H](C)CC)[C@@H](C)CC)C(=O)N[C@@H](CCC(=O)O)C(=O)NCC(=O)NCC(=O)N[C@@H](CCCCNC(=O)[C@@H](N)CCCCNC(=O)COCCOCCNC(=O)CC[C@H](NC(=O)CCCCCCCCCCCCC(=O)O)C(=O)O)C(=O)N[C@@H](CO)C(=O)N[C@@H](CO)C(=O)NCC(=O)N[C@@H](C)C(=O)N1CCC[C@H]1C(=O)N1CCC[C@H]1C(=O)N1CCC[C@H]1C(=O)N[C@@H](CO)C(N)=O` [Example 36]: in experiment [1] (setting [2]), the Ki is 0.103 nM. The concentration giving a half-maximal response (EC50) was 0.408 nM at hGIPR (setting [3]); 0.0185 nM on hGIPR (setting [5]); more than 9950 nM at hGCGR (setting [6]); more than 9950 nM on hGCGR (setting [7]); 10.9 nM at hGLP-1R (setting [8]). In addition, the Emax on hGIPR (setting [4]) was 91.4 ± 0.667%; on hGIPR (HEK293, percent of maximal response to GIP(1-42)NH2, 37° C., 0.1% bovine casein, arithmetic mean, read-out: hGIPR Emax, % ± SEM), 95.4 ± 2.02%.
With `CCCCCCCCCCCCCCCC(=O)N[C@@H](CCC(=O)NCCOCCOCC(=O)NCCOCCOCC(=O)NCCCC[C@H](NC(=O)[C@H](CO)NC(=O)[C@@H]1CCCN1C(=O)[C@@H]1CCCN1C(=O)[C@@H]1CCCN1C(=O)[C@H](C)NC(=O)CNC(=O)[C@H](CO)NC(=O)[C@H](CO)NC(=O)[C@@H]1CCCN1C(=O)CNC(=O)CNC(=O)[C@H](CCC(=O)O)NC(=O)[C@@H](NC(=O)[C@H](CC(C)C)NC(=O)[C@](C)(Cc1ccc(O)cc1)NC(=O)[C@@H](CCC(=O)O)NC(=O)[C@@H](NC(=O)[C@H](Cc1ccccc1)NC(=O)[C@H](CCC(=O)O)NC(=O)C(C)(C)NC(=O)[C@H](CCC(N)=O)NC(=O)[C@H](C)NC(=O)[C@H](CCCCNC(=O)COCCOCCNC(=O)COCCOCCNC(=O)CC[C@H](NC(=O)CCCCCCCCCCCCCCC)C(=O)O)NC(=O)[C@H](CCCN)NC(=O)[C@H](CC(=O)O)NC(=O)[C@H](CC(C)C)NC(=O)[C@](C)(CC(C)C)NC(=O)[C@@H](NC(=O)[C@H](CO)NC(=O)[C@H](Cc1ccncc1)NC(=O)[C@H](CC(=O)O)NC(=O)[C@H](CO)NC(=O)[C@@H](NC(=O)[C@](C)(Cc1ccccc1F)NC(=O)[C@@H](NC(=O)CNC(=O)[C@H](CCC(=O)O)NC(=O)C(C)(C)NC(=O)[C@@H](N)Cc1ccc(O)cc1)[C@@H](C)O)[C@@H](C)O)[C@@H](C)CC)[C@@H](C)CC)[C@@H](C)CC)C(N)=O)C(=O)O` [Example 25], the Ki in experiment [1] (setting [2]) stood at 0.0293 nM. Further, the EC50 on hGIPR (setting [3]) is 0.274 nM; on hGCGR (setting [6]), more than 9950 nM; at hGCGR (setting [7]), more than 9950 nM; on hGLP-1R (setting [8]) it was 1.11 nM. For the same compound, the Emax on hGIPR (setting [4]) was determined as 94.3 ± 1.73%.

The values above are taken from patent US20230265151A1, “GIP/GLP1 CO-AGONIST COMPOUNDS” (priority 2020, published 2023).
